Data taken from patent US20250304587A1, “WEE1 INHIBITOR, PREPARATION THEREFOR AND USE THEREOF” (JIANGSU TASLY DIYI PHARMACEUTICAL CO., LTD., priority 2022, published 2025).

What was measured:
plasma protein [1] = test: Plasma protein binding (equilibrium dialysis), mouse; conditions: mouse plasma, 1 μM, 5 h dialysis
Experimental: Sample preparation: The compound was dissolved in DMSO to a stock solution of 10 mM, then the compound was diluted with PBS to a secondary stock solution of 0.02 mM, and then the above 0.02 mM was diluted to 1 μM using blank plasma, which was the sample to be incubated.
Dialysis set-up preparation: 400 μL of blank PBS was first added to the white wells of the equilibrated dialysis plate and 200 μL of the configured plasma sample was added to the red wells, and the dialysis plate was sealed with a sealing film.
Recovery plate preparation: Two 96-well deep-well plates, labelled T0 and T5, were prepared and all plasma samples were added at n=2. 300 μL of acetonitrile (Verapamil-HCl, 4 ng/mL) was added directly to the TO plate, followed by 50 μL of blank PBS mix well for 5 min and left to stand in a 4° C. refrigerator until the end of the incubation.
Experimental Operation: The dialysis device and the T5 plate were incubated together for 5 h in a microplate thermostatic shaker (37° C., using 300 rpm or minimum speed). At the end of the incubation, 300 μL of acetonitrile (Verapamil-HCl, 4 ng/mL) was added and 50 μL of PBS solution was added. At the end of the dialysis incubation, a new 96-well deep well plate was taken. Add 50 μL of plasma well sample to the corresponding position of the 96-well plate, 300 μL of acetonitrile and 50 μL of blank PBS; take 50 μL of buffer well sample to the corresponding position of the 96-well plate, then add 300 μL of acetonitrile and 50 μL of blank plasma. Add 300 μL of acetonitrile (Verapamil-HCl, 4 ng/mL) to the plasma-containing wells of the T5 plate, and then 50 μL of PBS solution was added. Shake for 5 min to fully precipitate the proteins and centrifuge at 20,000 g for 10 min at 4° C. Add 200 μL of supernatant to 200 μL of pure water, mix well and perform LC-MS/MS analysis.
• Plasma protein binding rate=[(Rpe−Rb)/Rpe]×100% • Recovery=[(Rpe+Rb)/R5 h]×100% • Stability=(R5/R0)×100%
• Rpe=ratio of plasma-side testing sample peak area to internal standard • Rb=ratio of buffer side testing sample peak area to internal standard • R5=ratio of incubator stability sample peak area to internal standard • R0=ratio of refrigerator stability sample peak area to internal standard

BxPC3 cells = test: Cell Titer-Glo anti-proliferation, BxPC3 cells; assay type: cell-based, human; conditions: 3 days, read-out: Anti-proliferative activity BxPC3 (IC50 class)
Method in brief: (§1)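 Each line was exposed to graded compound concentrations for 3 days at 37 °C, 5% CO2, with final DMSO at 0.2%. Viability was measured by Cell Titer-Glo luminescence, with untreated cells as the maximum and medium as the minimum signal. IC50 came from a variable-slope log(inhibitor)-response fit.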

OVCAR-3 cells = test: Cell Titer-Glo anti-proliferation, OVCAR-3 cells; assay type: cell-based; conditions: 3 days, read-out: Anti-proliferative activity OVCAR-3 (IC50 class)
Method in brief: as §1

HK2 cells = test: Cell Titer-Glo anti-proliferation, normal cells HK2; assay type: cell-based
Experimental: (§2) Compound solutions of different concentration gradients were prepared. […] The cell growth group without compound was used as a positive control (maximum signal control) and the medium was used as a negative control (minimum signal control), while ensuring that the final level of DMSO in each reaction well was 0.2%. After removing the medium from the 384-well plate, 25 μl of the configured compound at different concentrations was transferred into the well plate and the compound and cells were incubated in the cell incubator at 37° C. with 5% CO2 for 3 days.
(§3) The 384-well plates were removed from the cell incubator and allowed to equilibrate for 1 h to room temperature. 25 μl of Cell Titer-Glo assay was added to each well, lysed on a shaker for 2 min and then read out (Luminescence) using a BMG PHERAStar after 10 min incubation. Calculate the inhibition rate from the luminescence signal.
(§4) to calculate the rate of inhibition of the cells by different concentrations of the compounds. The IC50 of the compound on cell activity inhibition was calculated by fitting a log(inhibitor) vs. response-Variable slope model to GraphPad Prism 6. The fitted equation was: Y=Bottom+(Top-Bottom)/(1+10^((Log IC50−X)*HillSlope)), where Y represents the rate of inhibition and X represents the concentration of the known compound after Log.
(§5) B. Evaluation of the Anti-Proliferative Effect of Compounds by the Cell Titer-Glo Method on Normal Cells HUVEC and HK2.
(§6) The test method is the same as the anti-proliferative activity evaluation of tumor cells.

HUVEC cells = test: Cell Titer-Glo anti-proliferation, normal cells HUVEC; assay type: cell-based
Experimental: as §2, §3, §4, §5, §6

HT-29 cells = test: Cell Titer-Glo anti-proliferation, HT-29 cells; assay type: cell-based, human; conditions: 3 days, read-out: Anti-proliferative activity HT-29 (IC50 class)
Method in brief: as §1

plasma protein [2] = test: Plasma protein binding (equilibrium dialysis), rat; assay type: in vitro ADME; conditions: 1 μM, 5 h dialysis
[3] = Metabolic stability in liver microsomes, monkey; assay type: in vitro ADME
Experimental: (§7) Microsomes were taken out from the −80° C. refrigerator, rapidly melted in a 37° C. water bath and placed on ice until ready to use. The test article was diluted with DMSO to prepare a 10 mM stock solution, and then diluted with acetonitrile to a 0.5 mM secondary stock solution. […] NADPH was diluted with Buffer C to a working solution of 6 mM for the starter solution. An acetonitrile solution containing an internal standard was prepared as the precipitant, and Verapamil-HCl was chosen as the internal standard at a concentration of 4 ng/ml. […] A separate plate with pointed bottom wells, noted as a precipitation plate, was added with 135 μL precipitant per well; 0 h samples were transferred to the plate after 10 min incubation and 15 μL of starter solution was added; the plate was placed on ice before centrifugation. The diluted starter solution was added in sufficient quantity to the dispensing plate to facilitate the multichannel pipette aspiration operation. The reaction was carried out on a warm incubation shaker and 15 μL of starter solution/sample is added to the plate using a multichannel pipette. The reaction was mixed with a slight shake to initiate the reaction, which was accurately timed and recorded using a timer; After the reaction time had elapsed, all the solution in the plate was aspirated using the multichannel pipette and added to the precipitation plate to terminate the reaction at that point in time. After all reactions had been terminated, the plates were shaken for ten minutes on a plate shaker at 600 rpm to precipitate the protein. The plate was centrifuged at 4° C. for 15 minutes at maximum rpm. 80 μL of supernatant was taken, 320 μL of pure water was added and mixed for LC-MS analysis.

Wee1 protein = Wee1 protein (Homo sapiens (Human), UniProt P30291); test: TR-FRET binding of compound to Wee1 protein and Tracer 178; conditions: Tracer 178, read-out: IC50, inhibitory activity against Wee1 kinase
Wee1 protein, sequence (P30291 whole entry): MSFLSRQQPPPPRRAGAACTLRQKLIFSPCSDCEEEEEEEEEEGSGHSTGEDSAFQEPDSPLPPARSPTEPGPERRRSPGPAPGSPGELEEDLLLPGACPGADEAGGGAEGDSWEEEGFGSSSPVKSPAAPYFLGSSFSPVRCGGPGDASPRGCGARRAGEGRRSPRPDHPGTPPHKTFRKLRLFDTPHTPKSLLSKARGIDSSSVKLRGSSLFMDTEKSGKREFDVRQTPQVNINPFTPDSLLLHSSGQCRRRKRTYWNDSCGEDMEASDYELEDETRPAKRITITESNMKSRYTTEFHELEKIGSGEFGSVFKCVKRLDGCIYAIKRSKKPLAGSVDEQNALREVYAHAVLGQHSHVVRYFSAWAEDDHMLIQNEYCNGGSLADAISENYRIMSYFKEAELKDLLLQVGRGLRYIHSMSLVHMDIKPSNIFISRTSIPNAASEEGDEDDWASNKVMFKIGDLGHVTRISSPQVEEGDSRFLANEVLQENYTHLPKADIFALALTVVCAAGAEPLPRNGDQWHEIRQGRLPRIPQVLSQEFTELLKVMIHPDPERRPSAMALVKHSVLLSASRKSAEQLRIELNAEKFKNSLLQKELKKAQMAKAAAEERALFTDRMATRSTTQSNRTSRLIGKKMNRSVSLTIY
Experimental: First, solutions of the compounds in different concentration gradients were prepared. The compounds were dissolved in DMSO and the compounds were diluted 4 folds with a total of 10 dose points and 2 parallel replicates for each concentration.
The IC50 for inhibition of enzyme activity by the compounds was then calculated using GraphPad Prism 6 and fitted with a log (inhibitor) vs. response-Variable slope mode. The fitting equation was: Y=Bottom+(Top−Bottom)/(1+10^((Log IC50−X)*HillSlope)), where Y represents the percentage of residual enzyme activity known and X represents the known concentration of compound after the logarithm.

[4] = Metabolic stability in liver microsomes, mouse; assay type: in vitro ADME
Experimental: as §7, with “Test Example 3: Evaluation of the Metabolic Stability of Liver Microsomes (Mouse and Human) In Vitro Microsomes” for “Microsomes”

[5] = Metabolic stability in liver microsomes, dog; assay type: in vitro ADME
Experimental: as §7

[6] = Metabolic stability in liver microsomes, rat; assay type: in vitro ADME
Experimental: as §7

Caco-2 cells = test: Membrane permeability in Caco-2 model; assay type: in vitro ADME; conditions: for Efflux Ration: Caco2; for Papp A to B / Papp B to A: Caco2, 10 μM, 90 min
Experimental: (§8) Caco-2 cells were purchased from the American Model Tissue Cell Collection (Rockville, MD). The cell culture medium was modified Eagle's medium (MEM) containing 10% inactivated fetal bovine serum and 1% non-essential amino acids. […] The cells were incubated for 21-28 days after inoculation for transport experiments and the apparent permeability (Papp) of Lucifer Yellow was used to characterize and verify the compactness of the cell monolayer. […] After the incubation, dilute the samples on the apical side and basolateral side, and the concentrations of compounds on the apical and basolateral sides were detected by LC-MS/MS, and the concentrations of the compounds were quantified by standard curve.

[7] = Metabolic stability in liver microsomes, human; assay type: in vitro ADME
Experimental: as §7, with “Test Example 3: Evaluation of the Metabolic Stability of Liver Microsomes (Mouse and Human) In Vitro Microsomes” for “Microsomes”

hERG potassium channel = hERG potassium channel (Homo sapiens (Human), UniProt Q12809); test: hERG potassium channel inhibition, patch clamp in CHO hERG cells
hERG potassium channel, sequence (Q12809 whole entry): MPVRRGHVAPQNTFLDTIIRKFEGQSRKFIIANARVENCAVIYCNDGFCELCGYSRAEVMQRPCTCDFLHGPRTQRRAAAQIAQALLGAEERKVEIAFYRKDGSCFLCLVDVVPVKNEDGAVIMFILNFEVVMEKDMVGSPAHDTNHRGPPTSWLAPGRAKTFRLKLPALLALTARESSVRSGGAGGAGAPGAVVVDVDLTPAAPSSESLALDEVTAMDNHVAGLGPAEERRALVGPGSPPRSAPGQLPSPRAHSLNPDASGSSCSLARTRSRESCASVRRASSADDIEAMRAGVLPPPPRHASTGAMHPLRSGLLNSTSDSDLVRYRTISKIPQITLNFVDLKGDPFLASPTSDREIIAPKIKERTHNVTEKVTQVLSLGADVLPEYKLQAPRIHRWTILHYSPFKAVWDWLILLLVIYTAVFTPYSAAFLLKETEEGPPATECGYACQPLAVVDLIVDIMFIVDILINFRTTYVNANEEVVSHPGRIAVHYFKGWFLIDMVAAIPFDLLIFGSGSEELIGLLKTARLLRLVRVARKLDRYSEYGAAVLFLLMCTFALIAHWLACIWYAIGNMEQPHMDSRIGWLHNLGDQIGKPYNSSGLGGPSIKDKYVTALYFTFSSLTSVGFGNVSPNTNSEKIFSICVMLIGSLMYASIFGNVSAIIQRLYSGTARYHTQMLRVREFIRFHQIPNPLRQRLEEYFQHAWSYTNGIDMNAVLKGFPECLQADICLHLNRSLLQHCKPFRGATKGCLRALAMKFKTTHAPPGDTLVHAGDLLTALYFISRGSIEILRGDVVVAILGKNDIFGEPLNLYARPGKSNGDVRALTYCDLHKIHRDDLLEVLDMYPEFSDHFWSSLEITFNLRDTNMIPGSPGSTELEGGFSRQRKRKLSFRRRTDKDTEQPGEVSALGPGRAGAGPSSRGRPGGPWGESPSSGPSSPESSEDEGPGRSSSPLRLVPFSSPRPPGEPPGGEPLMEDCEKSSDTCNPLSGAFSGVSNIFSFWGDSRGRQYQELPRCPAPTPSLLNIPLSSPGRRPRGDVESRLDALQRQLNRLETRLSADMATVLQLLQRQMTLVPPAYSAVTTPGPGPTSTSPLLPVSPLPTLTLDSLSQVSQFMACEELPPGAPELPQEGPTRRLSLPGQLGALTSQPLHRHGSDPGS
Experimental: The cell line used for the patch clamp assay was a 10th generation CHO cell overexpressing hERG potassium channel cDNA. CHO hERG cells were cultured in Petri dishes or flasks at 37° C. in a 5% CO2 incubator. Cells were dropped onto circular slides 24-48 hours prior to electrophysiological experiments and cultured in cell culture medium and used for experiments after the cells had been adhered.
Cell culture medium (purchased from Invitrogen) Composition: • Ham's F12 medium • 10% (v/v) heat inactivated FBS • 100 μg/ml Hygromycin B (thaumatin) • 100 μg/ml Geneticin (Genomycin, G418)
Compound powders are dissolved in the extracellular solution and are subjected to a routine 5 to 10 minute sonication and shaking to ensure complete dissolution of the compound.
The final concentrations of compounds used for electrophysiological assays were 5, 20 μM and the final concentration of DMSO was 0.1%.
Cell membrane currents were recorded using a HEKA EPC-10 USB patch-clamp amplifier (HEKA Elektronik, Germany). • 1) A coverslip with a large number of uniformly growing individual CHO hERG cells on its surface was taken. Place in a continuous recording cell on an inverted microscope, perfused with extracellular fluid (approximately 1 ml per minute) and recorded continuously, waiting for the current to stabilize. • 2) Record HERG channel currents for individual cells using standard whole cell recording mode. The membrane voltage is first clamped at −80 mV and the cell is given a +20 mV stimulus for 5 s to activate the hERG potassium channel, then repolarized to −50 mV for 5 s to generate an outward tail current, which is continuously perfused until the current is stable, at which point the peak tail current is the control current value. • 3) The extracellular solution containing the drug to be tested was then perfused and recorded until the inhibitory effect of the drug on the hERG current reached a steady state, at which point the peak tail current was the post-drug current value. • 4) The cells are again perfused with the extracellular solution until the hERG current returns to or approaches the level prior to the addition of the drug, then the perfusion can be continued to test other concentrations or drugs. One or more compound or drug concentrations may be tested on each cell. • 5) Cisapride (C4740-10 mg, Sigma) is used as a positive control in the experiment to ensure that the cells used respond properly.

[8] = Membrane permeability in Caco-2 model; assay type: in vitro ADME; conditions: human, Caco-2, pH 7.4
Experimental: as §8

Row | Plasma Protein binding (PPB) Mouse (plasma protein [1]) | IC50 (BxPC3 cells) | IC50 (OVCAR-3 cells) | IC50 (HT-29 cells) | IC50 (Wee1 protein) | Structure (SMILES) | IC50 (HK2 cells) | IC50 (HUVEC cells) | other results
1 | 93.51% | 100 to 1000 nM | 100 to 1000 nM | 100 to 1000 nM |  | C=CCn1c(=O)c2cnc(Nc3ccc(N4CCC(N(C)C)CC4)c(C)c3)nc2n1-c1ccc2c(n1)C(C)(O)C1(CC1)C2 (racemic) [Compound 15] | 760 nM | > 10000 nM | 
2 | 87.71% | 100 to 1000 nM | 100 to 1000 nM | 100 to 1000 nM | ≤ 5 nM | C=CCn1c(=O)c2cnc(Nc3ccc(N4CCN(C)CC4)cc3)nc2n1-c1ccc2c(n1)[C@H](O)C1(CC2)CC1 (single isomer, unassigned) [Compound 4b] | 1290 nM | > 10000 nM | Plasma Protein binding (PPB) Rat (plasma protein [2]): 77.45%; T1/2 liver microsomes Monkey [3]: 22.84 min; T1/2 liver microsomes Mouse [4]: 72.82 min; T1/2 liver microsomes Dog [5]: 41.74 min; T1/2 liver microsomes Rat [6]: >120 min; Efflux Ration (Caco-2 cells): 14.03; Papp A to B (Caco-2 cells): 0.94 10^−6 cm/s; Papp B to A (Caco-2 cells): 13.19 10^−6 cm/s; T1/2 liver microsomes Human [7]: 44.82 min; hERG Inhibition (hERG potassium channel; test concentration 5 μM): 23.84 ± 4.39%; hERG Inhibition (hERG potassium channel; test concentration 20 μM): 42.42 ± 5.58%
3 |  | 100 to 1000 nM | 100 to 1000 nM | 100 to 1000 nM |  | C=CCn1c(=O)c2cnc(Nc3ccc(N4CCC(N(C)C)CC4)c(C)c3)nc2n1-c1ccc2c(n1)[C@@](C)(O)C1(CC2)CC1 (single isomer, unassigned) [Compound 52a] | 480 nM | 3830 nM | T1/2 liver microsomes Monkey [3]: 14.22 min; T1/2 liver microsomes Mouse [4]: 96.19 min; T1/2 liver microsomes Dog [5]: 22.8 min; T1/2 liver microsomes Rat [6]: 31.42 min; T1/2 liver microsomes Human [7]: 26.24 min
4 | 96.26% |  |  |  |  | [2H][C@@]1(O)c2nc(-n3c4nc(Nc5ccc(N6CCC(N(C)C)CC6)c(C)c5)ncc4c(=O)n3CC=C)ccc2CCC12CC2 [Compound 41b] |  |  | 
5 | 98.46% |  |  |  |  | [2H][C@]1(O)c2nc(-n3c4nc(Nc5ccc(N6CCC7(CCN(C)CC7)CC6)c(C)c5)ncc4c(=O)n3CC=C)ccc2CCC12CC2 [Compound 61b] |  |  | Plasma Protein binding (PPB) Rat (plasma protein [2]): 93.61%

Second part, the compound before the results:

Row | Structure (SMILES) | Plasma Protein binding (PPB) Mouse (plasma protein [1]) | IC50 (BxPC3 cells) | IC50 (OVCAR-3 cells) | IC50 (HT-29 cells) | IC50 (Wee1 protein) | IC50 (HK2 cells) | IC50 (HUVEC cells) | other results
6 | C=CCn1c(=O)c2cnc(Nc3ccc(N4CCN(C)CC4)cc3)nc2n1-c1ccc2c(n1)C(O)(CC)C1(CC2)CC1 (racemic) [Compound 21] | 98.86% | 1000 to 2000 nM | 100 to 1000 nM | 100 to 1000 nM |  |  |  | 
7 | C=CCn1c(=O)c2cnc(Nc3ccc(N4CCN(C)CC4)cc3)nc2n1-c1ccc2c(n1)C(C)(O)C1(CC2)CC1 (centres unmarked) [Compound 6] | 97.2% | 1000 to 2000 nM | 100 to 1000 nM | 100 to 1000 nM | ≤ 5 nM |  |  | 
8 | C=CCn1c(=O)c2cnc(Nc3ccc(N4CC5CC(C4)N5C)cc3)nc2n1-c1ccc2c(n1)C(C)(O)C1(CC2)CC1 (centres unmarked) [Compound 7] |  | 100 to 1000 nM | 100 to 1000 nM | 100 to 1000 nM | ≤ 5 nM |  |  | hERG Inhibition (hERG potassium channel; test concentration 5 μM): 88.02 ± 3.87%; hERG Inhibition (hERG potassium channel; test concentration 20 μM): 95.13 ± 1.06%
9 | C=CCn1c(=O)c2cnc(Nc3ccc(N4CCC5(CCN(C)CC5)CC4)cc3)nc2n1-c1ccc2c(n1)C(C)(O)C1(CC1)C2 (centres unmarked) [Compound 11] | 92.17% | 100 to 1000 nM | 100 to 1000 nM | 100 to 1000 nM |  | 1460 nM | > 10000 nM | Efflux Ration (Caco-2 cells): 21.59; Papp A to B (Caco-2 cells): 0.41 10^−6 cm/s; Papp B to A (Caco-2 cells): 8.85 10^−6 cm/s
10 | C=CCn1c(=O)c2cnc(Nc3ccc(N4C[C@H]5CN(C)C[C@H]5C4)cc3)nc2n1-c1ccc2c(n1)C(O)(CC)C1(CC1)C2 (some centres unmarked) [Compound 28] | 92.29% | 100 to 1000 nM | 100 to 1000 nM | 100 to 1000 nM | ≤ 5 nM | 1190 nM | > 10000 nM | Plasma Protein binding (PPB) Rat (plasma protein [2]): 86.08%; T1/2 liver microsomes Monkey [3]: 17.74 min; T1/2 liver microsomes Mouse [4]: 51.65 min; T1/2 liver microsomes Dog [5]: 38.2 min; T1/2 liver microsomes Rat [6]: 30.9 min; T1/2 liver microsomes Human [7]: 29.95 min
11 | C=CCn1c(=O)c2cnc(Nc3ccc(N4CCN(C)CC4)cc3)nc2n1-c1ccc2c(n1)C(O)(C(F)(F)F)C1(CC1)C2 (centres unmarked) [Compound 32] | 96.87% | 1000 to 2000 nM | 1000 to 2000 nM | 100 to 1000 nM | 5 to 10 nM | 1140 nM | > 10000 nM | 
12 | [2H][C@]1(O)c2nc(-n3c4nc(Nc5ccc(N6CC7CC(C6)N7C(C)C)cc5)ncc4c(=O)n3CC=C)ccc2CCC12CC2 [Compound 39b] |  |  |  |  |  |  |  | Efflux Ration (Caco-2 cells): 35.84; Papp A to B (Caco-2 cells): 0.38 10^−6 cm/s; Papp B to A (Caco-2 cells): 13.62 10^−6 cm/s; hERG Inhibition (hERG potassium channel; test concentration 5 μM): 47.26 ± 2.27%; hERG Inhibition (hERG potassium channel; test concentration 20 μM): 67.24 ± 1.32%
13 | CC(C)NCC(O)COc1cccc2ccccc12 (centres unmarked) [Propranolol] |  |  |  |  |  |  |  | Papp A→B at 90 min, 10 µM ([8]; Caco2, 10 μM, 90 min): 14.7 ×10⁻⁶ cm/s; Papp B→A at 90 min, 10 µM ([8]; Caco2, 10 μM, 90 min): 13 ×10⁻⁶ cm/s; efflux ratio at 90 min, 10 µM ([8]; Caco2, read-out: Efflux Ration): 0.88
